Data reported in patent US10604473B2, “Lipids that increase insulin sensitivity and methods of using the same” (Beth Israel Deaconess Medical Center, Inc., priority 2013, dated 2020).

Columns and labels:
aged chow-fed mice = assay: Oral glucose tolerance test in aged chow-fed mice, with serum insulin and GLP-1; format: in vivo, mouse
Procedure: Area under the curve (AUC), *p<0.05 compared to vehicle. […] Area above the curve (AAC). *p<0.05 compared to vehicle. […] Area under the curve (AUC). *p<0.05 compared to vehicle. FIG. 53D is a bar graph showing serum insulin levels 5 min post glucose challenge in chow-fed mice gavaged with 5-PAHSA or vehicle (glucose values shown in FIG. 53C). n=12-14 per group, *p<0.05 compared to vehicle by t-test. FIG. 53E is a bar graph showing serum GLP-1 levels 5 min post glucose challenge from chow-fed mice gavaged with 5-PAHSA or vehicle (glucose levels in FIG. 53C). n=12-14 per group, *p<0.05 compared to vehicle by t-test. FIG. 53F are bar graphs showing insulin secretion from primary human islets from two independent donors. Islets were incubated with low (2.5 mM) or high (20 mM) glucose ex vivo in the presence of 5-PAHSA (20 μM) or vehicle control. n=100 islets per condition, *p<0.05 compared to control 2.5 mM glucose, ^#p<0.05 compared to respective treatments at 2.5 mM glucose, ^$p<0.05 compared to control or diluents at 20 mM glucose by t-test. FIG. 53G are bar graphs showing active GLP-1 secretion from STC-1 cells in response to 5-PAHSA (5-P), 9-PAHSA (9P), […] (LA), GW9508 (GW) or vehicle control (DMSO). n=4 per group, *p<0.05 compared to vehicle by t-test. All data are mean±s.e.m. See also FIG. 56.
Studies were conducted to determine whether the PAHSA effects to improve glucose tolerance resulted entirely from the increased insulin sensitivity or also from improved insulin secretion. Therefore, the effects of PAHSAs on glucose-stimulated insulin secretion were tested in vivo in aged (47 weeks old) chow-fed mice. […] Thus, PAHSAs acutely improve insulin sensitivity and glucose tolerance and stimulate GLP-1 and insulin secretion.

[1] = system: LPS-activated dendritic cells; assay: LPS-induced activation of bone marrow-derived dendritic cells; format: cell-based, mouse
Procedure: Mouse bone marrow cells were flushed from the femurs and tibiae. The red blood cells were eliminated and the cells plated at a density of 1.0×10^6 cells/mL in RBMI complete medium containing 10% FCS plus 20 ng/ml GM-CSF. The medium was replaced on day 4, and the cells were harvested on day 6 to obtain immature DCs. To obtain mature DCs, LPS was added to the cultures at a final concentration of 100 ng/mL on day 6, and the cells were cultured for an additional 24 h, as previously described by Macia, L., et al. Impairment of dendritic cell functionality and steady-state number in obese mice. J Immunol 177, 5997-6006 (2006), which is incorporated by reference in its entirety. To test the anti-inflammatory effects of 9-PAHSA, immature BMDC were treated with 9-PAHSA in a dose response dependent manner in the presence of 100 ng/mL of LPS. The activation status of the BMDCs was evaluated by measuring the expression of MHCII and co-stimulatory molecules using Flow Cytometry and by the production of pro-inflammatory cytokines (IL-6, TNF, IL-12 and IL-1β) which was assessed by ELISA.
Mouse bone marrow cells were flushed from the femurs and tibiae. The red blood cells were lysed, and the cells were plated at a density of 0.5×10^6 cells/mL in RPMI 1640 Low medium (Gibco, USA) containing 10% FCS (Gibco, USA) and 20 ng/mL GM-CSF. […]
The immature dendritic cells obtained in the day 6 were maturated with LPS in the presence of different concentrations of 9-PAHSA varying between 100 ng/mL to 20 ug/mL. The cells were maturated for 24 h and the maturation status analyzed by cytokine production and co-stimulatory molecules expression.
The cells were analyzed by Multicolor Flow cytometry. […] The cells were analyzed with an LSR II flow cytometer (BD) and FlowJo software.
An ELISA assay (Biolegend) was used to measure the concentration of IL-12p70 protein in conditioned media from immature and mature BMDCs. This assay allowed for the detection of total IL-12p70 concentrations in the range of 15.6-1,000 pg/ml, and the results are expressed as pg/mL IL-12p70.

purified CEL = target: T1, purified CEL (Homo sapiens, UniProt P19835); assay: FAHFA hydrolysis by purified CEL; format: biochemical; settings: micellar concentrations of NaTC
T1 construct: purchased R&D Systems
T1 sequence (P19835 21-753): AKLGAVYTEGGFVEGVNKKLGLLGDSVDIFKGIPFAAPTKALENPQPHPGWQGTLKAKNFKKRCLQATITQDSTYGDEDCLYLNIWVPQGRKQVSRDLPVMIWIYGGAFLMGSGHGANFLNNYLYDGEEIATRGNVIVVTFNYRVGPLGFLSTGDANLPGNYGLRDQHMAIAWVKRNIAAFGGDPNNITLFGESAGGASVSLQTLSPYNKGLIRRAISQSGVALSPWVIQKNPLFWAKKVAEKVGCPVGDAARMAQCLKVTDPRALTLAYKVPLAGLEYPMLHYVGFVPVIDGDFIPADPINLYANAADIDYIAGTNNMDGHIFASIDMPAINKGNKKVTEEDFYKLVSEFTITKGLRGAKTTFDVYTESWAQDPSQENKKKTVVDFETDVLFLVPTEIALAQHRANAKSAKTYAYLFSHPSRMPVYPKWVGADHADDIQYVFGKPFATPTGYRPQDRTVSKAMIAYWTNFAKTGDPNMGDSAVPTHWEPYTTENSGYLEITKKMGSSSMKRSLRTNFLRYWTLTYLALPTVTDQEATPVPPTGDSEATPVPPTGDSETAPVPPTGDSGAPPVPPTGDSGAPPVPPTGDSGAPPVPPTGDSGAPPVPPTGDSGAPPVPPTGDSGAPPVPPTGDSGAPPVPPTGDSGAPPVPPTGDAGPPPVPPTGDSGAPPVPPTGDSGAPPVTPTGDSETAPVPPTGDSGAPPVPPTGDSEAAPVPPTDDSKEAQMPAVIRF
Excerpt: To confirm the identification of CEL as a FAHFA hydrolase, a small amount of purified enzyme (available commercially from R&D Systems) was used.

[2] = 5 minutes after glucose administration

CCCCCCCCCCCCCCCC(=O)OC(CCCCCCCCCCCCC)CCCC(=O)O (stereo not shown) [5-PAHSA]
GLP-1 levels (aged chow-fed mice; [2]): increased | insulin secretion (aged chow-fed mice; [2]): acute enhancement of insulin secretion | glucose tolerance (aged chow-fed mice; OGTT, gavage 30 min prior): improved glucose tolerance

CCCCCCCCCCCCCCCC(=O)OC(CCCCCCCCC)CCCCCCCC(=O)O (stereo not shown) [9-PAHSA, palmitoyl-9-hydroxystearic acid]
IL-12 production ([1]; LPS 100 ng/mL): blocks IL-12 production | expression of MHCII and co-stimulatory molecules (CD40, CD80, CD86) ([1]; LPS-induced): reducing expression of MHCII and co-stimulatory molecules | LPS-induced dendritic cell activation ([1]; dose response): prevents LPS-induced dendritic cell activation in a dose dependent manner | hydrolysis of 9-PAHSA (9-HSA production) (purified CEL): substantial hydrolysis
